As usually defined, the pIC50 is −log10 of the IC50, conventionally taken in molar units. What is called half-life is the time in which the quantity being followed falls by half. Lower therefore signals fast loss. By bioavailability is commonly meant dose-corrected exposure relative to a reference, in per cent. A higher bioavailability goes with much systemic uptake.

28 compounds from ChEMBL document CHEMBL1127116, “Synthesis and structure-activity relationships of a novel series of non-peptide AT2-selective angiotensin II receptor antagonists” (Bioorg Med Chem Lett, 1993) can be followed below.

pIC50: −log10 of the molar value. A value given as a limit tells only on which side of the number the result lay.

The target in series [1] is T1, Type-1 angiotensin II receptor (Oryctolagus cuniculus, UniProt P34976).
T1 sequence (P34976 whole entry): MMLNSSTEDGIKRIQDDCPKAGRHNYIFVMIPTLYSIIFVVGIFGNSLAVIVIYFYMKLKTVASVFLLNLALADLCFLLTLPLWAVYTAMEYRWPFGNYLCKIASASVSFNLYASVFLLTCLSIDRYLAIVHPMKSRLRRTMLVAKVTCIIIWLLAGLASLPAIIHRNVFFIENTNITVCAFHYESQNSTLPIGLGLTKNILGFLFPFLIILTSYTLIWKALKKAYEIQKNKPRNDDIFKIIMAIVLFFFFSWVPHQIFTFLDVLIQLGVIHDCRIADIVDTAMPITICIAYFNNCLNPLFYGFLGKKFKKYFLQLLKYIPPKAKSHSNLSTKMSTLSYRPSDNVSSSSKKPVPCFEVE
Kind of series: Inhibition of Angiotensin II receptor, type 1 in rabbit aorta using [125I-Sar1,Ile8] angiotensin II binding assay. In kind it is tissue-based.

Series [2] deals with T2, Type-2 angiotensin II receptor (Rattus norvegicus, UniProt P35351).
T2 sequence (P35351 whole entry): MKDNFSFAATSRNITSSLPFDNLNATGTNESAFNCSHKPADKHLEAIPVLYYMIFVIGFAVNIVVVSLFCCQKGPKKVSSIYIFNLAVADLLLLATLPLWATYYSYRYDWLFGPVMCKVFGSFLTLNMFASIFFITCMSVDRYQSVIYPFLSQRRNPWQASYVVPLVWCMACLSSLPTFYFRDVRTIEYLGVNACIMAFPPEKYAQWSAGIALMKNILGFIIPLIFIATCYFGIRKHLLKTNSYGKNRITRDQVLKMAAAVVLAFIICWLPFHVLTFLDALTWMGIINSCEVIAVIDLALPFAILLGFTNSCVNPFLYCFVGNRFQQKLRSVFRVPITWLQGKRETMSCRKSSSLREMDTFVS
Kind of series: Inhibition of Angiotensin II receptor, type 2 in rat midbrain using [125I]-Sar1,Ile8 angiotensin II binding assay.

Series [3] can be described thus: Half life in rats. The format is ADME, organism-based. As to conditions: rat, in vivo.
The nature of series [4]: Oral bioavailability in rat. In kind it is ADME, organism-based. As to conditions: in vivo.
Series [5] has as its target T1, Type-1 angiotensin II receptor. Kind of series: Inhibition of angiotensin Angiotensin II receptor, type 1 in rabbit aorta using [125I-Sar1,Ile8] angiotensin II binding assay. In kind it is tissue-based.
The target of series [6] is T2, Type-2 angiotensin II receptor. The experiment in a line: Compound was evaluated for inhibition of Angiotensin II receptor, type 2 in rat midbrain AT2 assay. The format is tissue-based.

Regarding `CC(C)N(C(=O)N1CCN(C(=O)N(c2ccccc2)c2ccccc2)[C@H](C(=O)O)C1)C(C)C`, the negative logarithm of the IC50 (pIC50) in series [1] was < 5.00; in series [2] it was 7.40.
In the case of `O=C(O)[C@@H]1CN(C(=O)N(c2ccccc2)c2ccccc2)CCN1C(=O)N(c1ccccc1)c1ccccc1`, the pIC50 in series [1] was < 4.00. The half-life in series [3] is > 360 min. The same compound yielded a bioavailability in series [4] of 21%.
Turning to `CC1CN(C(=O)N(c2ccccc2)c2ccccc2)CCN1C(=O)N(c1ccccc1)c1ccccc1` (stereo unspecified), the pIC50 in series [5] was < 4.00; in series [2] it was 7.82.
As for `CCCCCN(CCCCC)C(=O)N1CCN(C(=O)N(c2ccccc2)c2ccccc2)[C@H](C(=O)OC)C1`, the pIC50 was 4.68 in series [1] and 7.92 in series [2].
Take `CCCCCN(CCCCC)C(=O)N1CCN(C(=O)N(c2ccccc2)c2ccccc2)C[C@H]1C(=O)O`: the pIC50 is 4.60 in series [1] and 7.64 in series [2].
On to `O=C(N1CCN(C(=O)N(c2ccccc2)c2ccccc2)CC1)N(c1ccccc1)c1ccccc1`, for which the pIC50 was < 4.00 in series [5] and 7.43 in series [2].
Turning to `CCCCCN(CCCCC)C(=O)N1CCN(C(=O)C(c2ccccc2)c2ccccc2)C(C(=O)O)C1` (stereo unspecified), the pIC50 in series [1] is < 4.00; in series [2], 8.96.
Turning to `CCCCCN(CCCCC)C(=O)N1CCN(C(=O)N(c2ccccc2)c2cccc(C)c2)[C@H](C(=O)O)C1`, the pIC50 is 5.00 in series [5] and 9.15 in series [2].
For `COc1ccc(Cn2cnc3c2C[C@@H](C(=O)O)N(C(=O)C(c2ccccc2)c2ccccc2)C3)cc1C`, the pIC50 in series [6] was 7.42.
With `CCCCCN(CCCCC)C(=O)N1CCN(C(=O)N(c2ccccc2)c2ccccc2)[C@H](CO)C1`, the figures for the pIC50 in series [1] and in series [2] were < 5.00 and 7.52, respectively.
As to `CCCCCN(CCCCC)C(=O)N1CCN(C(=O)N(c2ccccc2)c2ccc(O)cc2)[C@H](C(=O)O)C1`, the results for the negative logarithm of the IC50 (pIC50) in series [5] and in series [2] were 5.00 and 6.64, respectively.
Consider `CCCCCN(CCCCC)C(=O)N1CCN(C(=O)N(c2ccccc2)c2ccccc2)CC1`, for which the pIC50 in series [5] was 4.90; in series [2] it was 7.15.
In the case of `CCCCCN(CCCCC)C(=O)N1CCN(C(=O)N(c2ccccc2)c2ccccc2)[C@@H](C(=O)O)C1`, the figures for the pIC50 in series [1] and in series [2] were < 5.00 and 8.35, respectively.
Take `CCCCCN(CCCCC)C(=O)N1CCN(C(=O)N(c2ccccc2)c2cccc(Cl)c2)[C@H](C(=O)O)C1`: the figures for the pIC50 in series [5] and in series [2] were 5.29 and 9.40, respectively.
In the case of `CCCCCN(C(=O)N1CCN(C(=O)N(c2ccccc2)c2ccccc2)C[C@H]1C(=O)O)c1ccccc1`, the pIC50 in series [1] is 4.35; in series [2], 7.70.
The like results for `CCCCCN(CCCCC)C(=O)N1CCN(C(=O)N(CCCCC)CCCCC)[C@H](C(=O)O)C1` were, in that order, < 4.52 and 7.09.
Consider `CCCCCN(CCCCC)C(=O)N1CCN(C(=O)N(c2ccccc2)c2ccc(Br)cc2)[C@H](C(=O)O)C1`, for which the pIC50 in series [5] was 5.27; in series [2], 8.57.
For `CCCCCN(CCCCC)C(=O)N1CCN(C(=O)N(c2ccccc2)c2ccc(I)cc2)[C@H](C(=O)O)C1`, in that order: 5.07 and 8.15.
As to `CCCCCN(CCCCC)C(=O)N1CCN(C(=O)N(c2ccccc2)c2cccc(OC)c2)[C@H](C(=O)O)C1`, the figures for the pIC50 in series [5] and in series [2] were < 5.00 and 8.11, respectively.
The like results for `CC1CN(C(=O)N(c2ccccc2)c2ccccc2)C(C)CN1C(=O)N(c1ccccc1)c1ccccc1` (stereo unspecified) were, in that order, < 4.00 and 8.00.
For `CCCCCN(CCCCC)C(=O)N1CCN(C(=O)N(c2ccccc2)c2ccccc2)[C@H](CCO)C1`, in that order: < 5.00 and 7.82.
For the compound `CCCCCN(CCCCC)C(=O)N1CCN(C(=O)N(c2ccccc2)c2ccccc2)[C@H](C(=O)O)C1`, the pIC50 in series [5] was 4.41; in series [2] it was 8.85.
On to `CCCCCN(C)C(=O)N1CCN(C(=O)N(c2ccccc2)c2ccccc2)[C@H](C(=O)O)C1`, for which the negative logarithm of the IC50 (pIC50) in series [1] was < 4.52; in series [2] it was 7.82.
As to `CCCCCN(CCCCC)C(=O)N1CCN(C(=O)N(c2ccccc2)c2ccc(C(=O)OCC)cc2)[C@H](C(=O)O)C1`, the pIC50 is < 5.00 in series [5] and 7.46 in series [2].
For the compound `CCCCCN(CCCCC)C(=O)N1CCN(C(=O)N(c2ccccc2)c2ccc(C(=O)O)cc2)[C@H](C(=O)O)C1`, the pIC50 in series [5] is 5.85; in series [2], 6.74.
As to `CN(C(=O)N1CCN(C(=O)N(c2ccccc2)c2ccccc2)[C@H](C(=O)O)C1)c1ccccc1`, the pIC50 in series [1] is < 5.00; in series [2] it was 6.77.
On to `CCCCCN(CCCCC)C(=O)N1CCN(C(=O)N(c2ccccc2)c2cccc(Br)c2)[C@H](C(=O)O)C1`, for which the values for the pIC50 in series [5] and in series [2] were 4.23 and 9.22, respectively.
`CCCCCN(CCCCC)C(=O)N1CCN(C(=O)N(c2ccccc2)c2ccccc2)C(C(=O)O)C1` (stereo unspecified): the pIC50 in series [1] was < 4.52; in series [2] it was 8.77.
